# From patent US20170275270A1, “BENZYL SUBSTITUTED INDAZOLES” (Bayer Pharma Aktiengesellschaft, priority 2014, published 2017)
# Counter-ions that a name gives are not always drawn. Like-named read-outs stand apart in the source and are kept apart here.
# Biological target: T1, catalytic domain of human Bub1 (amino acids 704-1085) (Homo sapiens, UniProt O43683)
# T1 construct: catalytic domain of human Bub1 (amino acids 704-1085); His6 (N); made in house; host or cells: Hi5 insect cells
# Experiment: Bub1 kinase assay (TR-FRET)
# Type: biochemical
# Experimental: To this end, 100-fold concentrated compound solutions (in DMSO) were previously prepared by serial dilution (1:3.4) of 2 mM stocks in a clear low volume 384-well source microtiter plate (Greiner Bio-One, Frickenhausen, Germany), from which 50 nL of compounds were transferred into a black low volume test microtiter plate from the same supplier. […] The resulting mixture (5 μL final volume) was incubated at 22° C. during 60 min., and the reaction was stopped by the addition of 5 μL of an aqueous EDTA-solution (50 mM EDTA, in 100 mM HEPES pH 7.5 and 0.2% (w/v) bovine serum albumin) which also contained the TR-FRET detection reagents (0.2 μM streptavidin-XL665 [Cisbio Bioassays, Codolet, France] and 1 nM anti-phosho-Serine antibody [Merck Millipore, cat. #35-001] and 0.4 nM LANCE EU-W1024 labeled anti-mouse IgG antibody [Perkin-Elmer, product no. AD0077, alternatively a Terbium-cryptate-labeled anti-mouse IgG antibody from Cisbio Bioassays can be used]). The stopped reaction mixture was further incubated 1 h at 22° C. in order to allow the formation of complexes between peptides and detection reagents. Subsequently, the amount of product was evaluated by measurement of the resonance energy transfer from the Eu-chelate-antibody complex recognizing the Phosphoserine residue to the streptavidin-XL665 bound to the biotin moiety of the peptide. […] IC50 values were calculated by fitting the normalized inhibition data to a 4-parameter logistic equation (Minimum, Maximum, IC50, Hill; Y=Max+(Min−Max)/(1+(X/IC50) Hill)).
# [1] = Biological Assay 1: Bub1 kinase assay median IC50, 10 μM ATP
# [2] = 10 μM ATP, read-out: Biological Assay 1: Bub1 kinase assay median IC50
# T1 sequence (O43683 704-1085): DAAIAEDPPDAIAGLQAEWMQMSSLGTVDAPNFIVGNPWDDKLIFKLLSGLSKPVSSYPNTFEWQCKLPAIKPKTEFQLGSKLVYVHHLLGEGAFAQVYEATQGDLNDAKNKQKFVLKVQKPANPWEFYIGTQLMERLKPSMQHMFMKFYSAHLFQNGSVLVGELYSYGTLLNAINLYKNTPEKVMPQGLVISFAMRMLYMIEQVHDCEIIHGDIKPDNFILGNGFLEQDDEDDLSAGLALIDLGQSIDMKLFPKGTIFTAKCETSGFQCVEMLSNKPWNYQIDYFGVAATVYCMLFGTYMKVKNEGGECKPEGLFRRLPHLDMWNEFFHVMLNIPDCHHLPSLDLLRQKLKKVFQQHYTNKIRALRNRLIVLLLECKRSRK
SMILES,IC50 [1],IC50 [2]
"CC(=O)Nc1cc(Nc2nc(-c3nn(Cc4c(F)cc(OCCO)cc4F)c4ccccc34)nc3c2CCC(C)(C)C3)ccn1 [Example 2-6-42, N-{4-[(2-{1-[2,6-difluoro-4-(2-hydroxyethoxy)benzyl]-1H-indazol-3-yl}-7,7-dimethyl-5,6,7,8-tetrahydroquin-azolin-4-yl)amino]pyridin-2-yl}acetamide]",14 nM,–
"Cc1cc(Nc2nc(-c3nn(Cc4c(F)cc(OCCO)cc4F)c4ccccc34)nc3c2CCC(C)(C)C3)c(C)cn1 [Example 2-6-43, 2-{4-[(3-{4-[(2,5-dimethylpyridin-4-yl)amino]-7,7-dimethyl-5,6,7,8-tetrahydroquin-azolin-2-yl}-1H-indazol-1-yl)methyl]-3,5-difluorophenoxy} ethanol]",84 nM,–
"COc1cnccc1Nc1nc(-c2nn(Cc3c(F)cc(OCCO)cc3F)c3ccccc23)nc2c1CCCCC2 [Example 2-6-44, 2-{3,5-difluoro-4-[(3-{4-[(3-methoxypyridin-4-yl)amino]-6,7,8,9-tetrahydro-5H-cyclohepta[d]pyrimidin-2-yl}-1H-indazol-1-yl)methyl]phenoxy}ethanol]",12 nM,–
"CCOc1cc(F)c(Cn2nc(-c3ncc(CCN)c(Nc4ccnc(C)c4)n3)c3ccccc32)c(F)c1 [Example 2-9-12, 5-(2-aminoethyl)-2-[1-(4-ethoxy-2,6-difluorobenzyl)-1H-indazol-3-yl]-N-(2-methylpyridin-4-yl)pyrimidin-4-amine, salt with hydrochloric acid]",–,4.3 nM
"CCOc1cc(F)c(Cn2nc(-c3nc4c(c(Nc5ccncc5)n3)CNCC4)c3ccccc32)c(F)c1 [Example 2-9-16, 2-[1-(4-ethoxy-2,6-difluorobenzyl)-1H-indazol-3-yl]-N-(pyridin-4-yl)-5,6,7,8-tetrahydro-pyrido[4,3-d]pyr-imidin-4-amine]",16 nM,–
"CCOc1cc(F)c(Cn2nc(-c3ncc(CC4CNC4)c(Nc4cc(C)ncc4C)n3)c3ccccc32)c(F)c1 [Example 2-9-19, 5-(azetidin-3-ylmethyl)-N-(2,5-dimethylpyridin-4-yl)-2-[1-(4-ethoxy-2,6-difluorobenzyl)-1H-indazol-3-yl]pyrimidin-4-amine, salt with hydrochloric acid]",44 nM,–
"CCOc1cc(F)c(Cn2nc(-c3ncc(CC4CNC4)c(Nc4ccnc(C)n4)n3)c3ccccc32)c(F)c1 [Example 2-9-20, 5-(azetidin-3-ylmethyl)-2-[1-(4-ethoxy-2,6-difluorobenzyl)-1H-indazol-3-yl]-N-(2-methylpyrimidin-4-yl)pyrimidin-4-amine, salt with hydrochloric acid]",–,49 nM
"CCOc1cc(F)c(Cn2nc(-c3ncc(CCN)c(Nc4ccncc4Cl)n3)c3ccccc32)c(F)c1 [Example 2-9-21, 5-(2-aminoethyl)-N-(3-chloropyridin-4-yl)-2-[1-(4-ethoxy-2,6-difluorobenzyl)-1H-indazol-3-yl]pyrimidin-4-amine]",–,13 nM
"CCOc1cc(F)c(Cn2nc(-c3ncc(CCN)c(Nc4ccnc(C)n4)n3)c3ccccc32)c(F)c1 [Example 2-9-22, 5-(2-aminoethyl)-2-[1-(4-ethoxy-2,6-difluorobenzyl)-1H-indazol-3-yl]-N-(2-methylpyrimidin-4-yl)pyrimidin-4-amine, salt with hydrochloric acid (1:2)]",–,9.3 nM
"COCCOc1cc(F)c(Cn2nc(-c3nc4c(c(Nc5ccncc5Cl)n3)CNC4)c3ccccc32)c(F)c1 [Example 2-9-24, N-(3-chloropyridin-4-yl)-2-{1-[2,6-difluoro-4-(2-meth-oxyethoxy)benzyl]-1H-indazol-3-yl}-6,7-dihydro-5H-pyrrolo[3,4-d]pyrimidin-4-amine]",38 nM,–
"COCCOc1cc(F)c(Cn2nc(-c3nc4c(c(Nc5ccnc(C)n5)n3)CNC4)c3ccccc32)c(F)c1 [Example 2-9-25, 2-{1-[2,6-difluoro-4-(2-methoxy-ethoxy)benzyl]-1H-indazol-3-yl}-N-(2-methylpyrimidin-4-yl)-6,7-dihydro-5H-pyrrolo[3,4-d]pyrimidin-4-amine, salt with hydrochloric acid]",77 nM,–
"COCCOc1cc(F)c(Cn2nc(-c3nc4c(c(Nc5cc(C)ncc5C)n3)CNC4)c3ccccc32)c(F)c1 [Example 2-9-26, 2-{1-[2,6-difluoro-4-(2-methoxy-ethoxy)benzyl]-1H-indazol-3-yl}-N-(2,5-dimethylpyridin-4-yl)-6,7-dihydro-5H-pyrrolo[3,4-d]pyr-imidin-4-amine]",180 nM,–
"COCCOc1cc(F)c(Cn2nc(-c3nc4c(c(Nc5ccncn5)n3)CNC4)c3ccccc32)c(F)c1 [Example 2-9-27, 2-{1-[2,6-difluoro-4-(2-methoxy-ethoxy)benzyl]-1H-indazol-3-yl}-N-(pyrimidin-4-yl)-6,7-dihydro-5H-pyrrolo[3,4-d]pyr-imidin-4-amine, salt with hydrochloric acid]",20 nM,–

# More lines, now with the values ahead:
IC50 [1],IC50 [2],SMILES
210 nM,–,"CCOc1cc(F)c(Cn2nc(-c3ncc(CC4CN(CC(F)(F)F)C4)c(Nc4ccnc(NC(C)=O)c4)n3)c3ccccc32)c(F)c1 [Example 2-11-4, N-{4-[(2-[1-(4-ethoxy-2,6-difluorobenzyl)-1H-indazol-3-yl]-5-{[1-(2,2,2-trifluoroeth-yl)azetidin-3-yl]methyl}pyrimidin-4-yl)amino]pyr-idin-2-yl}acetamide]"
8.4 nM,–,"CCOc1cc(F)c(Cn2nc(-c3nc(C)cc(Nc4ccncc4)n3)c3ccccc32)c(F)c1 [Example 2-12-1, 2-[1-(4-ethoxy-2,6-difluorobenzyl)-1H-indazol-3-yl]-6-methyl-N-(pyridin-4-yl)pyrimidin-4-amine]"
16 nM,–,"CCOc1cc(F)c(Cn2nc(-c3nc(C)c(CC)c(Nc4ccncc4)n3)c3ccccc32)c(F)c1 [Example 2-12-8, 2-[1-(4-ethoxy-2,6-difluorobenzyl)-1H-indazol-3-yl]-5-ethyl-6-methyl-N-(pyridin-4-yl)pyrimidin-4-amine]"
68 nM,–,"CCOc1cc(F)c(Cn2nc(-c3nc4c(c(Nc5ccncc5)n3)CCN(Cc3ccccc3)C4)c3ccccc32)c(F)c1 [Example 2-12-15, 7-Benzyl-2-[1-(4-ethoxy-2,6-difluorobenzyl)-1H-indazol-3-yl]-N-(pyridin-4-yl)-5,6,7,8-tetrahydropyrido[3,4-d]pyrimidin-4-amine]"
55 nM,–,"COc1ccc(Cn2nc(-c3nc(C)c(F)c(Nc4ccncc4)n3)c3ccccc32)cc1 [Example 2-12-24, 5-fluoro-2-[1-(4-methoxybenzyl)-1H-indazol-3-yl]-6-methyl-N-(pyridin-4-yl)-pyrimidin-4-amine]"
57 nM,–,"COCCOc1cc(F)c(Cn2nc(-c3nc(CN4CCOCC4)cc(Nc4ccnc(C(F)F)c4)n3)c3ccccc32)c(F)c1 [Example 2-12-36, 2-{1-[2,6-difluoro-4-(2-methoxyethoxy)benzyl]-1H-indazol-3-yl}-N-[2-(difluoromethyl)pyridin-4-yl]-6-(morpholin-4-ylmethyl)pyrimidin-4-amine]"
17 nM,–,"COCCOc1cc(F)c(Cn2nc(-c3nc(CN4CCOCC4)cc(Nc4ccncn4)n3)c3ccccc32)c(F)c1 [Example 2-12-37, 2-{1-[2,6-difluoro-4-(2-methoxyethoxy)benzyl]-1H-indazol-3-yl}-6-(morpholin-4-ylmethyl)-N-(pyrimidin-4-yl)pyrimidin-4-amine]"
